Counter-ions that a name gives are not always drawn. Like-named read-outs stand apart in the source and are kept apart here. Marks after values point to notes of the source that are not given here.
Experiments:
[1] = tested on: ovariectomized female rats; experiment: 26-week treatment of ovariectomized female rats: lumbar spine BMD, total fat, cholesterol, ALP (Example 3, experiment 2); format: in vivo, Sprague-Dawley rats; conditions: OVX rats, 26 weeks, serum
Procedure: Ten to twelve week-old female Sprague-Dawley rats (Crl:CD(SD)Br) (Charles River Laboratory, St-Constant, Canada) weighing approximately 220-270 g at start of treatment were used. The animals were acclimatized to the environmental conditions (temperature: 22±3° C.; humidity: 50±20%; 12-h light-12-h dark cycles, lights on at 07:15 h) for at least 1 week before starting the experiments. The animals were housed individually and were allowed free access to tap water and a pelleted certified rodent feed (Lab Diet 5002, Ralston Purina, St-Louis, Mo.). […]
(§1) After 3 months (experiment 1) or 26 weeks (experiment 2) of treatment, individual rats under Isoflurane anesthesia had their whole body skeleton and lumbar spine scanned using dual energy x-ray absorptiometry (DEXA; QDR 4500A, Hologic, Waltham, Mass.) and a Regional High Resolution Scan software. The bone mineral density (BMD) of the lumbar spine (vertebrae L2 to L4) and the total body composition (fat percentage) were determined.
After 3 months (experiment 1) or 26 weeks (experiment 2) of treatment, blood samples were collected at the jugular vein from overnight fasted animals (under Isoflurane anesthesia). […] Serum cholesterol levels and alkaline phospatase activity (ALP) were determined using the Boehringer Mannheim Diagnostic Hitachi 911 Analyzer (Boehringer Mannheim Diagnostic Laboratory Systems).
Data are expressed as means±SEM. […]

[2] = tested on: estrone-stimulated uterine weight; experiment: Antiestrogenic activity: estrone-stimulated uterine weight in ovariectomized mice; format: in vivo, BALB/c mice; conditions: OVX mice + estrone; any dose used (1, 3 or 10 μg)
Procedure: (§2) Female BALB/c mice (BALB/cAnNCrlBR) weighing 18-20 g were obtained from Charles-River, Inc. (St-Constant, Quebec, Canada) and housed 5 per cage in a temperature (23±1° C.)- and light (12 h light/day, lights on at 7:15)-controlled environment. The mice were fed rodent chow and tap water ad libitum. The animals were ovariectomized (OVX) under Isoflurane anesthesia via bilateral flank incisions and randomly assigned to groups of 10 animals. Ten mice were kept intact as controls.
(§3) In the second experiment (Table 4), TSE 424 was administered orally by gavage once daily at doses of 1, 3, 10 or 30 μg/animal for 9 days, starting 2 days after ovariectomy. In both experiments, to evaluate the antiestrogenic activity, treatment with estrone (E1, 0.06 μg, s.c. injection, twice daily) was started 5 days post-ovariectomy and was administered for a 6 day-period. Compounds were dissolved in ethanol (4% final concentration) and administered in 0.4% methylcellulose. Mice in the intact and OVX control groups received the vehicle alone (4% ETOH-0.4% methylcellulose) during the 9-day period. The animals were killed by exsanguination at the abdominal aorta on the 11th morning following ovariectomy. The uteri and vagina were rapidly dissected, weighed, and kept in 10% buffered formalin for further histologic examination.

[3] = tested on: ovariectomized mice; experiment: Estrogenic activity: uterine and vaginal weight in ovariectomized mice, compounds alone; format: in vivo, BALB/c mice; conditions: OVX mice, no estrone; daily oral 1 μg and 10 μg
Procedure: as §2, §3

[4] = tested on: biochemical parameters of bone metabolism; experiment: Treatment of rats with DHEA and EM-800 alone or in combination: biochemical parameters of bone metabolism, serum lipids; format: in vivo; conditions: rat; for effect on serum cholesterol / effect on serum triglycerides: 9 months, DHEA 10 mg percutaneously, EM-800 75 μg orally, once daily (FIG. 10)
Excerpt: Data are expressed as the means±SEM. **: p<0.01 experimental versus respective control.
It is thus important to analyze the changes in biochemical parameters of bone metabolism induced by various compounds and treatments in order to gain a better knowledge of their action (Table 2).
It is particularly important to indicate that the combination of DHEA and acolbifene exerted unexpected beneficial effects on important biochemical parameters of bone metabolism. […] Moreover, no effect of DHEA could be detected on daily urinary calcium or phosphorus excretion (Luo, Sourla et al. 1997). EM-800 (prodrug of acolbifene free salt) decreased the urinary hydroxyproline/creatinine ratio by 48% while, similarly to DHEA, no effect of EM 800 (prodrug of acolbifene, free salt) was seen on urinary calcium or phosphorus excretion. EM-800, moreover, had no effect on serum alkaline phosphatase activity, a marker of bone formation while DHEA increased the value of the parameter by about 75% (Luo, Sourla et al. 1997).

[5] = tested on: ovariectomized rats; experiment: 12-month treatment of ovariectomized rats with DHEA alone or with Flutamide or EM-800: bone histomorphometry, bone markers, serum lipids; format: in vivo, rat; conditions: OVX rats
[6] = tested on: ovariectomized female rats; experiment: 5-week treatment of ovariectomized female rats with SERMs alone or with DHEA: BMD (Example 4); format: in vivo, Sprague-Dawley rats; conditions: OVX rats, 5 weeks; SERMs 2.5 mg/kg oral, DHEA 80 mg/kg topical
Procedure: (§4) Ten to twelve week-old female Sprague-Dawley rats (Crl:CD(SD)Br) (Charles River Laboratory, St-Constant, Canada) weighing approximately 220-270 g at start of treatment were used. The animals were acclimatized to the environmental conditions (temperature: 22±3° C.; humidity: 50±20%; 12-h light-12-h dark cycles, lights on at 07:15 h) for at least 1 week before starting the experiments. The animals were housed individually and were allowed free access to tap water and a pelleted certified rodent feed (Lab Diet 5002, Ralston Purina, St-Louis, Mo.). Experiments were conducted in an animal facility approved by the Canadian Council on Animal Care (CCAC) and the Association for Assessment and Accreditation of Laboratory Animal Care (AAALAC) in accordance with the CCAC Guide for Care and Use of Experimental Animals.
On Day 1 of the study, the animals of the appropriate groups were bilaterally ovariectomized (OVX) under isoflurane anesthesia. The DHEA was applied topically on the dorsal skin as a solution in 50% ethanol-50% propylene glycol while the tested SERMs were administered as suspension in 0.4% methylcellulose by oral gavage. Treatments were initiated on Day 2 of the study and were performed once daily during 5 weeks.
After 5 weeks of treatment, individual rats under Isoflurane anesthesia had their lumbar spine, femur and tibia scanned using dual energy x-ray absorptiometry (DEXA; QDR 4500A, Hologic, Waltham, Mass.) and a Regional High Resolution Scan software. The bone mineral density (BMD) of the lumbar spine (vertebrae L2 to L4), distal femoral metaphysis (DFM) and proximal tibial metaphysis (PTM) were determined.
Data are expressed as means±SEM. Statistical significance was determined according to the multiple-range test of Duncan-Kramer {Kramer, 1956 #37421.

[7] = 50 mg daily, 6 months, cited from earlier work
[8] = 6 months; cited from earlier work
[9] = tested on: ovariectomized female rats; experiment: 3-month treatment of ovariectomized female rats: lumbar spine BMD, total fat, cholesterol, ALP (Example 3, experiment 1); format: in vivo, Sprague-Dawley rats; conditions: OVX rats, 3 months, serum
Procedure: as §4
On Day 1 of the study, the animals of the appropriate groups were bilaterally ovariectomized (OVX) under isoflurane anesthesia. The DHEA was applied topically on the dorsal skin as a solution in 50% ethanol-50% propylene glycol while the other tested compounds were administered as suspension in 0.4% methylcellulose by oral gavage. Treatments were initiated on Day 2 of the study and were performed once daily during 3 months.
as §1
After 3 months (experiment 1) or 26 weeks (experiment 2) of treatment, blood samples were collected at the jugular vein from overnight fasted animals (under Isoflurane anesthesia). Samples were processed for serum preparation and frozen at −80° C. until assay. Serum cholesterol levels and alkaline phospatase activity (ALP) were determined using the Boehringer Mannheim Diagnostic Hitachi 911 Analyzer (Boehringer Mannheim Diagnostic Laboratory Systems).
Data are expressed as means±SEM. Statistical significance was determined according to the multiple-range test of Duncan-Kramer (Kramer 1956).

[10] = tested on: human ZR-75-1 breast tumors; experiment: ZR-75-1 tumor growth in ovariectomized nude mice in absence of estrone (agonistic effects); conditions: no estrone, 200 μg daily, 161 days

SMILES: Oc1ccc2c(c1)CC[C@H](c1ccccc1)[C@@H]2c1ccc(OCCN2CCCC2)cc1 (racemic) [lasofoxifene, (−)-cis-(5R,6S)-6-phenyl-5-[4-(2-pyrrolidin-1-ylethoxy)phenyl]-5,6,7,8-tetrahydronaphthalen-2-ol, D-(−)-tartrate salt]
- CHOLESTEROL [1]: 0.60 ± 0.02 mmol/L

SMILES: Oc1ccc2c(c1)CC[C@@H](c1ccccc1)[C@H]2c1ccc(OCCN2CCCC2)cc1 (single isomer, unassigned) [inactive enantiomer of lasofoxifene]
- inhibitory effect on estrone-stimulated uterine weight [2]: no inhibitory effect
- stimulatory effect on uterine weight [3]: no stimulatory effect
- stimulatory effect on vaginal weight [3]: no stimulatory effect

SMILES: C[C@]12CC[C@H](O)CC1=CC[C@@H]1[C@@H]2CC[C@]2(C)C(=O)CC[C@@H]12 [DHEA, dehydroepiandrosterone]
- effect on serum cholesterol [4]: no effect
- effect on serum triglycerides [4]: inhibitory effect
- increase in trabecular bone number compared to ovariectomized controls [5]: 137%
- reduction (inhibitory effect) of serum cholesterol [5]: 22%
- trabecular bone number [5]: 1.27±0.1 per mm
- trabecular bone volume of the tibia [5]: 11.9±0.6%
- Alkaline phosphatase ([5]; serum): 201±25 IU/L
- CHOLESTEROL ([5]; serum): 1.78 ± 0.16 mmol/L
- Triglycerides ([5]; serum): 0.8 ± 0.1 mmol/L
- OH-proline/creatinine ([5]; urine): 7.3±1.0 μmol/mmol
- DISTAL FEMORAL METAPHYSIS (DFM) BMD [6]: 0.2934 ± 0.0046 g/cm^2
- DISTAL FEMORAL METAPHYSIS (DFM) Prevention of Bone Loss [6]: 71%
- LUMBAR SPINE (L2-L4) BMD [6]: 0.2144 ± 0.0028 g/cm^2
- LUMBAR SPINE (L2-L4) Prevention of Bone Loss [6]: 44%
- PROXIMAL TIBIAL METAPHYSIS (PFM) BMD [6]: 0.2672 ± 0.0041 g/cm^2
- PROXIMAL TIBIAL METAPHYSIS (PFM) Prevention of Bone Loss [6]: 42%
- decrease of responsiveness of serum insulin to the glucose tolerance test [7]: 13%
- improvement in the insulin sensitivity index [7]: 34%
- decrease of abdominal subcutaneous fat ([7]; both women and men): 6%
- decrease of abdominal visceral fat ([7]; men 65 to 78 years): 7.4%
- decrease of abdominal visceral fat ([7]; women 65 to 78 years): 10.2%
- decrease of total body fat mass [8]: 1.4 kg
- increase of fat-free mass [8]: 0.9 kg

SMILES: C[C@]12CC[C@@H]3c4ccc(O)cc4CC[C@H]3[C@@H]1CC[C@@H]2O [E2, 17β-estradiol]
- ALP [9]: 59 ± 4 IU/L

SMILES: CC1=C(c2ccc(OC(=O)C(C)(C)C)cc2)[C@H](c2ccc(OCCN3CCCCC3)cc2)Oc2cc(OC(=O)C(C)(C)C)ccc21 [EM-800, (S)-(+)-4-[7-(2,2-dimethyl-1-oxopropoxy)-4-methyl-2-[4-[2-(1-piperidinyl)-ethoxy]phenyl]-2H-1-benzopyran-3-yl]-phenyl 2,2-dimethylpropanoate]
- effect on serum cholesterol [4]: decreases
- effect on serum triglycerides [4]: decreases
- URINE HP/Cr (hydroxyproline/creatinine ratio) ([4]; DHEA 10 mg, EM-800 75 μg): 6.81 ± 0.84** μmol/mmol

SMILES: CC/C(=C(\c1ccccc1)c1ccc(/C=C/C(=O)O)cc1)c1ccccc1 [GW 5638]
- ALP [9]: 72 ± 6 IU/L
- effect of compound alone on ZR-75-1 tumor size compared to OVX control [10]: did not significantly change

SMILES: CC/C(=C(/c1ccc(OCCN(C)C)cc1)c1cccc(O)c1)c1ccccc1 [droloxifene, (E)-3-[1-[4-[2-(Dimethylamino)ethoxy]phenyl]-2-phenyl-1-butenyl]phenol]
- effect of compound alone on ZR-75-1 tumor size compared to OVX control [10]: did not significantly change

SMILES: Cl.O=C(c1ccc(OCCN2CCCCC2)cc1)c1c(-c2ccc(O)cc2)sc2cc(O)ccc12 [raloxifene, [2-(4-hydroxyphenyl)-6-hydroxybenzo[b]thien-3-yl][4-[2-(1-piperidinyl)ethoxy]phenyl]-methanone hydrochloride]
- effect of compound alone on ZR-75-1 tumor size compared to OVX control [10]: did not significantly change

SMILES: CC/C(=C(\c1ccccc1)c1ccc(OCCN(C)C)cc1)c1ccccc1 [tamoxifen, (Z)-2-[4-(1,2-diphenyl-1-butenyl)phenoxy]-N,N-dimethylethanamine]
- stimulatory effect on tumor growth (FIG. 15) ([10]; OVX nude mice): approximately 100%

SMILES: CN(C)CCOc1ccc(/C(=C(/CCCl)c2ccccc2)c2ccccc2)cc1 [toremifene, (Z)-2-[4-(4-Chloro-1,2-diphenyl-1-butenyl)phenoxy]-N,N-dimethylethanamine]
- average tumor size increase over baseline ([10]; OVX nude mice): 86%

— US9744177B2, “Treatment of male androgen deficiency symptoms or diseases with sex steroid precursor combined with SERM” (ENDORECHERCHE, INC., priority 2014, dated 2017)
